Measurements: patent publication US8648097B2, “Pyridylaminoacetic acid compound” (Ube Industries, Ltd., priority 2008, dated 2014)
Counter-ions that a name gives are not always drawn. Like-named read-outs stand apart in the source and are kept apart here.

Legend:
[1] = biological target: T1, EP2 (Homo sapiens, UniProt P43116); assay: Measurement of EP2 agonist activity (cAMP in HEK293 cells); assay type: cell-based; set-up: host or cells: HEK293 cells; details: amount of cAMP in HEK293 cells (ES-562-C, Euroscreen), 30 minutes
Procedure: Measurement of EP2 agonist activity was carried out in compliance with the method of Wilson et al. (European Journal of Pharmacology, 501, 49 (2004)). HEK293 cells (ES-562-C, Euroscreen) were cultured in MEM medium containing 10% FBS and seeded at 2×10^4 cells per well of a 96-well plate. On the following day, the medium was replaced with serum-free MEM medium containing 3-isobutyl-1-methylxanthine (final concentration: 500 μM) and after culturing for 30 minutes, a test compound dissolved in dimethylsulfoxide was added followed by allowing to stand undisturbed in a carbon dioxide incubator. After 30 minutes, the amount of cAMP in the cells was measured with a cAMP Biotrak EIA System kit (GE Healthcare Sciences).

[2] = tested on: isolated guinea pig trachea; assay: Isolated guinea pig trachea relaxation test; details: 50% relaxation of 0.1 μM carbachol-induced contraction
Procedure: The tracheas were isolated from guinea pigs (Hartley, male, age 7 to 9 weeks, supplier: Nippon SLC) followed by cutting as rings containing cartilage. Trachea specimens were prepared by cutting the side opposite from the smooth muscle from the rings. The trachea specimens were suspended in Krebs solution containing 3 μM indomethacin while applying a load of 0.5 g, and changes in tension were measured through an FD pickup (TB-611T, Nippon Kohden). The trachea specimens were then warmed to 37° C. and perfused with a mixed gas consisting of 95% oxygen and 5% carbon dioxide. Next, after causing the trachea specimen to contract by adding 0.1 μM carbachol, a test compound dissolved in dimethylsulfoxide was cumulatively added starting at a low concentration to cause the trachea specimen to relax.

[3] = biological target: T1, EP2; assay: Measurement of EP2 receptor binding action; set-up: expressed in transfected cells; host or cells: HEK293 cells (membrane fraction)
Procedure: Measurement of EP2 receptor binding action was carried out in compliance with the method of Abramovitz et al. (Biochimica et Biophysica Acta, 1483, 285 (2000)). […] The membrane fraction was recovered on glass fiber filter paper (GF/B, Whatmann) using a cell harvester (M30R, Brandel), and after washing with buffer solution (10 mM MES-KOH (pH 6.0), 10 mM MgCl2), radioactivity was measured with a liquid scintillation analyzer (2000CA, Packard). […] The dissociation constant (Kd) was calculated by Scatchard analysis. Furthermore, a Compound A shown in the table is a sodium salt of {3-[(4-tert-butylbenzyl)(pyridin-3-ylsulfonyl)aminomethyl]-phenoxy}acetic acid (CP-533,536), which is the compound of Example 14e of WO 99/19300A, and is a control compound having EP2 receptor binding action.

[4] = read-out: Ki Value of EP2 Receptor Binding Action

T1 sequence (P43116 whole entry): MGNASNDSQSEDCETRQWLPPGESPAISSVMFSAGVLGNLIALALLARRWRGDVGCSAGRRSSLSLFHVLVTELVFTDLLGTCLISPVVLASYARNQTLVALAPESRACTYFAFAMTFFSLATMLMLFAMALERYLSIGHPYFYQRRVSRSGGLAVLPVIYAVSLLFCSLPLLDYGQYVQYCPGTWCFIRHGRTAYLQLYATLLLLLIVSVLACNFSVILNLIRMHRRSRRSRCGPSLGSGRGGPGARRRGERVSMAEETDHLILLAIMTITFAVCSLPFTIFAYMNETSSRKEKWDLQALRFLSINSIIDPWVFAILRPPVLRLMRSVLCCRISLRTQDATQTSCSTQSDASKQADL

## O=C(O)CNc1cccc(CN(Cc2ccc(-c3nc(C(F)(F)F)cs3)cc2)S(=O)(=O)c2ccccn2)n1 [Example 25, (6-{(Pyridin-2-ylsulfonyl)[4-(4-trifluoromethylthiazol-2-yl)benzyl]aminomethyl}-pyridin-2-ylamino)acetic acid]
[1]
  EC50: 7.9 nM

## O=C(O)CNc1cccc(CN(Cc2ccc(-c3ccccn3)cc2)S(=O)(=O)c2cccnc2)n1 [Example 19, (6-{[4-(Pyridin-2-yl)benzyl](pyridin-3-ylsulfonyl)aminomethyl}pyridin-2-ylamino)-acetic acid]
[1]
  EC50: 2 nM

## O=C(O)CNc1cccc(CN(Cc2ccc(-c3nccs3)cc2)S(=O)(=O)c2cccnc2)n1 [Example 2, (6-{(Pyridin-3-ylsulfonyl)[4-(thiazol-2-yl)benzyl]aminomethyl}pyridin-2-ylamino)-acetic acid]
[2]; Cavia porcellus
  IC50: 5.7 nM

## O=C(O)CNc1cccc(CN(Cc2ccc(-n3cccn3)cc2)S(=O)(=O)c2ccccn2)n1 [Example 21, (6-{[4-(Pyrazol-1-yl)benzyl](pyridin-2-ylsulfonyl)aminomethyl}pyridin-2-ylamino)-acetic acid]
[1]
  EC50: 1.1 nM

## O=C(O)CNc1cccc(CN(Cc2ccc(-c3ccccc3)cc2)S(=O)(=O)c2cccnc2)n1 [Example 6, {6-[(Biphenyl-4-ylmethyl)(pyridin-3-ylsulfonyl)aminomethyl]pyridin-2-ylamino}acetic acid hydrochloride]
[1]
  EC50: 2 nM
[3]
  Ki: 3.8 nM

## O=C(O)CNc1cccc(CN(Cc2ccc(-c3ccc(F)cc3)cc2)S(=O)(=O)c2cccnc2)n1 [Example 9, {6-[(4′-Fluorobiphenyl-4-ylmethyl)(pyridin-3-ylsulfonyl)aminomethyl]pyridin-2-ylamino}acetic acid hydrochloride]
[3]; [4]
  Ki: 4.4 nM

## O=C(O)CNc1cccc(CN(Cc2ccc(-c3nccs3)cc2)S(=O)(=O)c2cccnc2)n1 [Example 11, (6-{(Pyridin-3-ylsulfonyl) [4-(thiazol-2-yl)benzyl]aminomethyl}pyridin-2-ylamino)-acetic acid trifluoroacetate]
[1]
  EC50: 0.42 nM
[3]; [4]
  Ki: 3.8 nM

## O=C(O)CNc1cccc(CN(Cc2ccc(-c3ccccc3)cc2)S(=O)(=O)c2ccccn2)n1 [Example 17, {6-[(Biphenyl-4-ylmethyl)(pyridin-2-ylsulfonyl)aminomethyl]pyridin-2-ylamino}acetic acid hydrochloride]
[2]; Cavia porcellus
  IC50: 2.6 nM
[1]
  EC50: 1.8 nM
[3]; [4]
  Ki: 1.5 nM

## COc1ccc2cc(CN(Cc3cccc(NCC(=O)O)n3)S(=O)(=O)c3cccnc3)sc2c1 [Example 15, {6-[(6-Methoxybenzo[b]thiophen-2-ylmethyl)(pyridin-3-ylsulfonyl)aminomethyl]-pyridin-2-ylamino}acetic acid hydrochloride]
[2]; Cavia porcellus
  IC50: 2.6 nM
[1]
  EC50: 0.96 nM
[3]; [4]
  Ki: 9.4 nM

## O=C(O)CNc1cccc(CN(Cc2ccc(C3=NCCS3)cc2)S(=O)(=O)c2ccc(F)cc2)n1 [Example 5, (6-{[4-(4,5-Dihydrothiazol-2-yl)benzyl](4-fluorobenzenesulfonyl)aminomethyl}-pyridin-2-ylamino)acetic acid]
[1]
  EC50: 1.8 nM
[3]; [4]
  Ki: 7 nM

## O=C(O)CNc1cccc(CN(Cc2cc3ccc(Cl)cc3s2)S(=O)(=O)c2cccnc2)n1 [Example 12, {6-[(6-Chlorobenzo[b]thiophen-2-ylmethyl)(pyridin-3-ylsulfonyl)aminomethyl]pyridin-2-ylamino}acetic acid hydrochloride]
[1]
  EC50: 0.49 nM
[3]; [4]
  Ki: 1.1 nM

## O=C(O)CNc1cccc(CN(Cc2cc3ccccc3o2)S(=O)(=O)c2cccnc2)n1 [Example 8, {6-[(Benzofuran-2-ylmethyl)(pyridin-3-ylsulfonyl)aminomethyl]pyridin-2-ylamino}-acetic acid hydrochloride]
[1]
  EC50: 5.6 nM

## O=C(O)CNc1cccc(CN(Cc2ccc(-c3nccs3)cc2)S(=O)(=O)c2ccc(F)cc2)n1 [Example 4, (6-{(4-Fluorobenzenesulfonyl)[4-(thiazol-2-yl)benzyl]aminomethyl}pyridin-2-ylamino)acetic acid]
[2]
  IC50: 4.5 nM
[1]
  EC50: 0.29 nM
[3]; [3H]prostaglandin E2 10 nM, membrane fraction of HEK293 cells expressing human EP2 receptor, read-out: Ki Value of EP2 Receptor Binding Action
  Ki: 2.8 nM

## O=C(O)CNc1cccc(CN(Cc2ccc(-c3ncccn3)cc2)S(=O)(=O)c2ccccn2)n1 [Example 18, (6-{(Pyridin-2-ylsulfonyl)[4-(pyrimidin-2-yl)benzyl]aminomethyl}pyridin-2-ylamino)-acetic acid hydrochloride]
[1]
  EC50: 5 nM
[3]; [4]
  Ki: 9.2 nM

## O=C(O)CNc1cccc(CN(Cc2ccc(-c3cscn3)cc2)S(=O)(=O)c2ccccn2)n1 [Example 16, (6-{(Pyridin-2-ylsulfonyl)[4-(thiazol-4-yl)benzyl]aminomethyl}pyridin-2-ylamino)-acetic acid]
[2]; Cavia porcellus
  IC50: 2.6 nM
[1]
  EC50: 0.62 nM
[3]; [4]
  Ki: 3.1 nM

## O=C(O)CNc1cccc(CN(Cc2ccc(-n3cccn3)cc2)S(=O)(=O)c2cccnc2)n1 [Example 7, (6-{[4-(Pyrazol-1-yl)benzyl](pyridin-3-ylsulfonyl)aminomethyl}pyridin-2-ylamino)-acetic acid hydrochloride]
[1]
  EC50: 2.8 nM

## O=C(O)CNc1cccc(CN(Cc2ccc(-c3nccs3)cc2)S(=O)(=O)c2ccccn2)n1 [Example 3, (6-{(Pyridin-2-ylsulfonyl)[4-(thiazol-2-yl)benzyl]aminomethyl}pyridin-2-ylamino)-acetic acid]
[1]
  EC50: 0.45 nM
[3]; [4]
  Ki: 1.9 nM

## CC(C)(C)c1ccc(CN(Cc2cccc(OCC(=O)O)c2)S(=O)(=O)c2cccnc2)cc1 [Compound A, {3-[(4-tert-butylbenzyl)(pyridin-3-ylsulfonyl)aminomethyl]-phenoxy}acetic acid, reference compound]
[2]; Cavia porcellus
  IC50: 86 nM

## O=C(O)CNc1cccc(CN(Cc2ccc(-n3cccn3)cc2)S(=O)(=O)c2ccc(F)cc2)n1 [Example 26, (6-{(4-Fluorobenzenesulfonyl)[4-(pyrazol-1-yl)benzyl]aminomethyl}pyridin-2-ylamino)acetic acid]
[1]
  EC50: 0.78 nM

## O=C(O)CNc1cccc(CN(Cc2cc3ccccc3s2)S(=O)(=O)c2cccnc2)n1 [Example 13, {6-[(Benzo[b]thiophen-2-ylmethyl)(pyridin-3-ylsulfonyl)aminomethyl]pyridin-2-ylamino}acetic acid hydrochloride]
[1]
  EC50: 3.4 nM
[3]; [4]
  Ki: 13 nM
